Assay results published in publication PMC8431030, “In Vitro and In Silico Evaluation of New 1,3,4-Oxadiazole Derivatives of Pyrrolo[3,4-d]pyridazinone as Promising Cyclooxygenase Inhibitors” (International Journal of Molecular Sciences, 2021).

What was measured:
COX-1 = target: T1, COX-1 (Ovis aries, UniProt P05979); assay: colorimetric COX peroxidase assay (Cayman […]), […] nm; format: biochemical; conditions: read-out: IC50 [μM] (SD) / COX-1
T1 construct: gene PTGS1; kit is understood to hold ovine COX-1
T1 sequence (P05979 25-600): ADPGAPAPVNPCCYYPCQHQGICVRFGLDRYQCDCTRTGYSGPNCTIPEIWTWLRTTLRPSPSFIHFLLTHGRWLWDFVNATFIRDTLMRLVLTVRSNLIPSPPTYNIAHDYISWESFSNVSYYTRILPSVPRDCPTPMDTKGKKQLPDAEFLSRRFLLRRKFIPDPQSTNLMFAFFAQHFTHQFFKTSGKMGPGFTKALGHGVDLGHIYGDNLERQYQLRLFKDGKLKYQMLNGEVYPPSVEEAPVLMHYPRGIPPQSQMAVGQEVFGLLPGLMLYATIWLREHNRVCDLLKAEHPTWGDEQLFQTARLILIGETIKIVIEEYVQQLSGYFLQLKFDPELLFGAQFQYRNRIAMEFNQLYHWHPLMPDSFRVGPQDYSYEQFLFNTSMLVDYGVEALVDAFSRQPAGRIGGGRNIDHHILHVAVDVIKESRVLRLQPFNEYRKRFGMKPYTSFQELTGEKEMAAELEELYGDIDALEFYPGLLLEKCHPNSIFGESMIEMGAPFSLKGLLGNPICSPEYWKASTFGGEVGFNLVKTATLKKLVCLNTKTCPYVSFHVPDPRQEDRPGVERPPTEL

COX-2 = target: T2, COX-2 (Homo sapiens, UniProt P35354); assay: colorimetric COX peroxidase assay (Cayman […]), […] nm; format: biochemical; conditions: read-out: IC50 [μM] (SD) / COX-2
T2 construct: gene PTGS2; kit is understood to hold human recombinant COX-2 (docking used PDB 4M11, not the assay protein)
T2 sequence (P35354 18-604): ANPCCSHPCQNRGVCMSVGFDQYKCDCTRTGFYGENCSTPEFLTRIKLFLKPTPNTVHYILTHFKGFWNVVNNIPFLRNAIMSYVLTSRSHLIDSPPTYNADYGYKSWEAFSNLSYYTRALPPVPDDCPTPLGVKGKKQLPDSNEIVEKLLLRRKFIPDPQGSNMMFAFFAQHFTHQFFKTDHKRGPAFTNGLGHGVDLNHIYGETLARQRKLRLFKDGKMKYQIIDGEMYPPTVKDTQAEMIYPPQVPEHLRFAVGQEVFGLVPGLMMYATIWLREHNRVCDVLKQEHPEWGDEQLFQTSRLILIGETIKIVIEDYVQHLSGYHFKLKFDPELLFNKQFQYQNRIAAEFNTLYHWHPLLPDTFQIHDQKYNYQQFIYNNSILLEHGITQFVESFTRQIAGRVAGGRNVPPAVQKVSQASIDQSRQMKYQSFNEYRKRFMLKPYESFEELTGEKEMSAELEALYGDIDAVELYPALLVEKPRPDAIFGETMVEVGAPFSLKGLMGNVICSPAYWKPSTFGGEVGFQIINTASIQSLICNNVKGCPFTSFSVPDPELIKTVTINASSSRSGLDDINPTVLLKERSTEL

SMILES | IC50 (COX-1) [µM] | IC50 (COX-2) [µM]
Cc1c2c(OCc3n[nH]c(=S)o3)nn(C)c(=O)c2c(C)n1-c1ccccc1 [1a] | 130 | 43.6
CCCCn1c(C)c2c(OCc3n[nH]c(=S)o3)nn(C)c(=O)c2c1C [1b] | 138 | 63.4
Cc1ccc(C)c(N2CCN(Cn3nc(COc4nn(C)c(=O)c5c(C)n(-c6ccccc6)c(C)c45)oc3=S)CC2)c1 [2a, 3,5,7-Trimethyl-6-phenyl-1-[[4-[(4-(2,5-dimethylphenyl)piperazin-1-yl)methyl]-2-thioxo-1,3,4-oxadiazol-5-yl]methoxy]pyrrolo[3,4-d]pyridazin-4-one] | 50.3 | 49.7
CCCCn1c(C)c2c(OCc3nn(CN4CCN(c5cc(C)ccc5C)CC4)c(=S)o3)nn(C)c(=O)c2c1C [2b, 3,5,7-Trimethyl-6-butyl-1-[[4-[(4-(2,5-dimethylphenyl)piperazin-1-yl)methyl]-2-thioxo-1,3,4-oxadiazol-5-yl]methoxy]pyrrolo[3,4-d]pyridazin-4-one] | 50 | 49.4
Cc1c2c(OCc3nn(CN4CCN(c5ccc(F)cc5F)CC4)c(=S)o3)nn(C)c(=O)c2c(C)n1-c1ccccc1 [3a, 3,5,7-Trimethyl-6-phenyl-1-[[4-[(4-(2,4-difluorophenyl)piperazin-1-yl)methyl]-2-thioxo-1,3,4-oxadiazol-5-yl]methoxy]pyrrolo[3,4-d]pyridazin-4-one] | 50.3 | 49.7
CCCCn1c(C)c2c(OCc3nn(CN4CCN(c5ccc(F)cc5F)CC4)c(=S)o3)nn(C)c(=O)c2c1C [3b] | 54.3 | 56
Cc1c2c(OCc3nn(CN4CCN(c5ccc(Cl)c(Cl)c5)CC4)c(=S)o3)nn(C)c(=O)c2c(C)n1-c1ccccc1 [4a, 3,5,7-Trimethyl-6-phenyl-1-[[4-[(4-(3,4-dichlorophenyl)piperazin-1-yl)methyl]-2-thioxo-1,3,4-oxadiazol-5-yl]methoxy]pyrrolo[3,4-d]pyridazin-4-one] | 50.2 | 49.2
CCCCn1c(C)c2c(OCc3nn(CN4CCN(c5ccc(Cl)c(Cl)c5)CC4)c(=S)o3)nn(C)c(=O)c2c1C [4b, 3,5,7-Trimethyl-6-butyl-1-[[4-[(4-(3,4-dichlorophenyl)piperazin-1-yl)methyl]-2-thioxo-1,3,4-oxadiazol-5-yl]methoxy]pyrrolo[3,4-d]pyridazin-4-one] | 56.8 | 57.3
Cc1ccc(C)c(N2CCN(C(=O)CSc3nnc(COc4nn(C)c(=O)c5c(C)n(-c6ccccc6)c(C)c45)o3)CC2)c1 [5a, 3,5,7-trimethyl-1-[[2-[2-oxo-2-(4-(2,5-dimethylphenyl)piperazin-1-yl)ethyl]sulfanyl-1,3,4-oxadiazol-5-yl]methoxy]-6-phenyl-pyrrolo[3,4-d]pyridazin-4-one] | 53.2 | 50.1
CCCCn1c(C)c2c(OCc3nnc(SCC(=O)N4CCN(c5cc(C)ccc5C)CC4)o3)nn(C)c(=O)c2c1C [5b, 3,5,7-trimethyl-1-[[2-[2-oxo-2-(4-(2,5-dimethylphenyl)piperazin-1-yl)ethyl]sulfanyl-1,3,4-oxadiazol-5-yl]methoxy]-6-butyl-pyrrolo[3,4-d]pyridazin-4-one] | 51.8 | 53.8
Cc1c2c(OCc3nnc(SCC(=O)N4CCN(c5ccc(F)cc5F)CC4)o3)nn(C)c(=O)c2c(C)n1-c1ccccc1 [6a, 3,5,7-trimethyl-1-[[2-[2-oxo-2-(4-(2,4-difluorophenyl)piperazin-1-yl)ethyl]sulfanyl-1,3,4-oxadiazol-5-yl]methoxy]-6-phenyl-pyrrolo[3,4-d]pyridazin-4-one] | 52.3 | 50.2
CCCCn1c(C)c2c(OCc3nnc(SCC(=O)N4CCN(c5ccc(F)cc5F)CC4)o3)nn(C)c(=O)c2c1C [6b, 3,5,7-trimethyl-1-[[2-[2-oxo-2-(4-(2,4-difluorophenyl)piperazin-1-yl)ethyl]sulfanyl-1,3,4-oxadiazol-5-yl]methoxy]-6-butyl-pyrrolo[3,4-d]pyridazin-4-one] | 51.1 | 50.1
Cc1c2c(OCc3nnc(SCC(=O)N4CCN(c5ccc(Cl)c(Cl)c5)CC4)o3)nn(C)c(=O)c2c(C)n1-c1ccccc1 [7a, 3,5,7-trimethyl-1-[[2-[2-oxo-2-(4-(3,4-dichloro)piperazin-1-yl)ethyl]sulfanyl-1,3,4-oxadiazol-5-yl]methoxy]-6-phenyl-pyrrolo[3,4-d]pyridazin-4-one] | 51.6 | 50.3
CCCCn1c(C)c2c(OCc3nnc(SCC(=O)N4CCN(c5ccc(Cl)c(Cl)c5)CC4)o3)nn(C)c(=O)c2c1C [7b, 3,5,7-trimethyl-1-[[2-[2-oxo-2-(4-(3,4-dichlorophenyl)piperazin-1-yl)ethyl]sulfanyl-1,3,4-oxadiazol-5-yl]methoxy]-6-butyl-pyrrolo[3,4-d]pyridazin-4-one] | 50.9 | 49.5
